Laboratory results as given in ChEMBL document CHEMBL5104152, “DNA-encoded library screening on two validated enzymes of the peptidoglycan biosynthetic pathway” (Bioorg Med Chem Lett, 2022).

Assays:
[1] = biological target: D-alanine--D-alanine ligase B (Escherichia coli K-12, UniProt P07862); test: Inhibition of recombinant Escherichia coli DdlB using D-alanine as substrate incubated for 20 mins and measured by malachite green based colorimetric assay
[2] = test system: Escherichia coli; test: Antibacterial activity against Escherichia coli N43 incubated for 20 hrs and measured by broth microdilution method; assay type: functional
[3] = test system: Escherichia coli; test: Antibacterial activity against Escherichia coli ATCC 25922 incubated for 20 hrs and measured by broth microdilution method; assay type: functional
[4] = test system: Staphylococcus aureus; test: Antibacterial activity against Staphylococcus aureus ATCC 29213 incubated for 20 hrs and measured by broth microdilution method; assay type: functional
[5] = test system: Escherichia coli; test: Antibacterial activity against Escherichia coli D22 incubated for 20 hrs and measured by broth microdilution method; assay type: functional
[6] = biological target: D-alanine--D-alanine ligase B (Escherichia coli K-12) (UniProt P07862); test: Inhibition of recombinant Escherichia coli DdlB assessed as residual activity at 1 mM using D-alanine as substrate incubated for 20 mins and measured by malachite green based colorimetric assay relative to control
[7] = biological target: UDP-N-acetylglucosamine 1-carboxyvinyltransferase (Escherichia coli K-12) (UniProt P0A749); test: Inhibition of recombinant Escherichia coli MurA assessed as residual activity at 1 mM using UDP-N-acetylglucosamine as substrate incubated for 15 mins and measured by malachite green based colorimetric assay relative to control
[8] = biological target: D-alanine--D-alanine ligase B (Escherichia coli K-12) (UniProt P07862); test: Inhibition of recombinant Escherichia coli DdlB assessed as residual activity at 500 uM using D-alanine as substrate incubated for 20 mins and measured by malachite green based colorimetric assay relative to control
[9] = biological target: D-alanine--D-alanine ligase B (Escherichia coli K-12) (UniProt P07862); test: Inhibition of recombinant Escherichia coli DdlB assessed as residual activity at 20 uM using D-alanine as substrate incubated for 20 mins and measured by malachite green based colorimetric assay relative to control
[10] = biological target: UDP-N-acetylglucosamine 1-carboxyvinyltransferase (Escherichia coli K-12) (UniProt P0A749); test: Inhibition of recombinant Escherichia coli MurA assessed as residual activity at 0.5 mM using UDP-N-acetylglucosamine as substrate incubated for 15 mins and measured by malachite green based colorimetric assay relative to control
[11] = biological target: UDP-N-acetylglucosamine 1-carboxyvinyltransferase (Escherichia coli K-12, UniProt P0A749); test: Inhibition of recombinant Escherichia coli MurA using UDP-N-acetylglucosamine as substrate incubated for 15 mins and measured by malachite green based colorimetric assay
[12] = biological target: D-alanine--D-alanine ligase B (Escherichia coli K-12) (UniProt P07862); test: Inhibition of recombinant Escherichia coli DdlB assessed as residual activity at 100 uM using D-alanine as substrate incubated for 20 mins and measured by malachite green based colorimetric assay relative to control
[13] = biological target: UDP-N-acetylglucosamine 1-carboxyvinyltransferase (Escherichia coli K-12) (UniProt P0A749); test: Inhibition of recombinant Escherichia coli MurA assessed as residual activity at 0.1 mM using UDP-N-acetylglucosamine as substrate incubated for 15 mins and measured by malachite green based colorimetric assay relative to control

Chain of UDP-N-acetylglucosamine 1-carboxyvinyltransferase (Escherichia coli K-12) (P0A749 whole entry): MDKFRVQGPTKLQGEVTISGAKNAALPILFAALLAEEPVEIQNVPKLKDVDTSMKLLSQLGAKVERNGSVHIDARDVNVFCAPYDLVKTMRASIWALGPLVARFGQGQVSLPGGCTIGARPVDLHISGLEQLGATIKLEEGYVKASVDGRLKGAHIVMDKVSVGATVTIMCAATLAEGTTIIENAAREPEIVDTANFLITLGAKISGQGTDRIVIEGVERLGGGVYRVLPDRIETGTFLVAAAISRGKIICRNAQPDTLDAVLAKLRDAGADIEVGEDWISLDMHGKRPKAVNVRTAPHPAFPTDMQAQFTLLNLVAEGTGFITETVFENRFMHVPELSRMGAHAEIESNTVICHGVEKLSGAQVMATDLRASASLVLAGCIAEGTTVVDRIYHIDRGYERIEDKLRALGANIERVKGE
Chain of UDP-N-acetylglucosamine 1-carboxyvinyltransferase (P0A749 whole entry): as above

Q: Which results are given for `CC[C@H](C)[C@@H](CCC(=O)NC)NC(=O)[C@H](Cc1c[nH]c2ccc(F)cc12)NC(=O)[C@H](CCC(C)C)NCc1cnn(C)c1-c1ccc(OC)cc1`?
A: IC50 [1]: 243 µM; MIC [2]: > 250 µM; MIC [3]: > 250 µM; MIC [4]: > 250 µM; MIC [5]: > 250 µM

Q: How did the Activity [6] turn out when `Cc1c[nH]c2ccc(F)cc12` was run?
A: 108%

Q: `CNC(=O)C(N)Cc1c[nH]c2ccccc12` (configuration not stated) was tested. Which Activity [7] did it give?
A: 95.3%

Q: With `O=C(O)c1cc(-c2ccccc2Cl)nc2ccccc12` as the compound, how does the Activity [7] read?
A: 58.8%

Q: How did the Activity [8] turn out when `CCN(CC)C(=O)c1ccc(-c2cc3nc[nH]c3nc2C(=O)N[C@@H](Cc2ccccc2F)C(=O)NC)cc1` was run?
A: 81%

Q: How did the Activity [9] turn out when `CNC(=O)[C@@H]1[C@@H](C)OC(C)(C)N1C(=O)[C@@H](NC(=O)c1nsc2ccc(-c3cc(F)cc(F)c3)cc12)C(C)C` was run?
A: 103%

Q: Which Activity [10] does the source give for `CC(=O)Nc1ccc(-c2cc(C(=O)O)c3ccccc3n2)cc1` here?
A: 82.6%

Q: For `O=C(O)c1cc(-c2ccc(-c3ccccc3)cc2)nc2ccccc12`, which MIC [2] is on record?
A: > 128 µg/mL

Q: What about the IC50 [11] of the same compound?
A: 172 µM

Q: And the MIC [3]?
A: > 128 µg/mL

Q: And the MIC [4]?
A: 128 µg/mL

Q: And the MIC [5]?
A: 128 µg/mL

Q: With `CNC(=O)[C@H]1CCCC[C@H]1NC(=O)c1nsc2ccc(-c3cc(F)cc(F)c3)cc12` as the compound, how does the Activity [9] read?
A: 106%

Q: For `O=C(O)c1cc(-c2ccc(Cl)cc2)nc2ccccc12`, which Activity [7] is on record?
A: 79.3%

Q: Which Activity [7] does the source give for `O=C(O)c1cc(-c2cccc(Cl)c2)nc2ccccc12` here?
A: 82.4%

Q: Which Activity [7] does the source give for `O=C(O)c1cc(-c2ccc3c(c2)OCCO3)nc2ccccc12` here?
A: 77.3%

Q: `O=C(O)c1cc(-c2ccccc2)nc2c(Cl)cccc12` was tested. Which Activity [7] did it give?
A: 95.2%

Q: `O=C(O)CCc1c[nH]c2ccc(F)cc12` was tested. Which Activity [6] did it give?
A: 94.2%

Q: With `COc1ccc(-c2[nH]ncc2CN)cc1` as the compound, how does the Activity [6] read?
A: 58.6%

Q: `CNC(=O)[C@@H](Cc1cn(C(=O)OC(C)(C)C)c2ccccc12)NCc1ccc(-n2ccnc2)c(-c2ccc(-c3cc(C(=O)O)c4ccccc4n3)cc2)c1` was tested. Which MIC [2] did it give?
A: > 128 µg/mL

Q: And the IC50 [11]?
A: 14.1 µM

Q: What about the MIC [3] of the same compound?
A: > 128 µg/mL

Q: What about the MIC [4] of the same compound?
A: > 128 µg/mL

Q: And the MIC [5]?
A: > 128 µg/mL

Q: Which results are given for `O=C(O)c1cc(-c2ccc(/C=C/c3ccccc3)cc2)nc2ccccc12`?
A: MIC [2]: > 128 µg/mL; IC50 [11]: 78.3 µM; MIC [3]: > 128 µg/mL; MIC [4]: 64 µg/mL; MIC [5]: 32 µg/mL

Q: Which Activity [7] does the source give for `O=C(O)c1cc(-c2ccccc2O)nc2ccccc12` here?
A: 77.5%

Q: `CNC(=O)C[C@H](C)NC(=O)c1nsc2ccc(-c3cc(F)cc(F)c3)cc12` was tested. Which Activity [12] did it give?
A: 87%

Q: With `O=C(O)c1cc(-c2ccc(-c3ccc([N+](=O)[O-])cc3)cc2)nc2ccc(Br)cc12` as the compound, how does the Activity [13] read?
A: 100%

Q: For `O=C(O)c1c(-c2ccccc2)c(-c2ccccc2)nc2ccccc12`, which Activity [7] is on record?
A: 85.2%

Q: `COc1ccc(-c2cc[nH]n2)cc1` was tested. Which Activity [6] did it give?
A: 92.9%

Q: How did the Activity [7] turn out when `O=C(O)c1cc(-c2ccccc2)nc2cc(Cl)ccc12` was run?
A: 101%

Q: `O=C(O)c1cc(-c2ccccc2)nc2ccc(Cl)cc12` was tested. Which Activity [7] did it give?
A: 86.3%

Q: `O=C(O)c1cc(-c2ccco2)nc2ccccc12` was tested. Which Activity [7] did it give?
A: 68%

Q: `COC(=O)c1cc(-c2ccccc2)nc2ccccc12` was tested. Which Activity [7] did it give?
A: 92.6%

Q: Which Activity [13] does the source give for `O=C(O)c1cc(-c2ccc(C3CCCCC3)cc2)nc2ccccc12` here?
A: 98.3%

Q: Which Activity [6] does the source give for `NC(Cc1c[nH]c2ccc(F)cc12)C(=O)O` (configuration not stated) here?
A: 92.5%

Q: How did the IC50 [11] turn out when `CNC(=O)[C@@H](Cc1c[nH]c2ccccc12)NCc1ccc(-n2ccnc2)c(-c2ccc(-c3cc(C(=O)O)c4ccccc4n3)cc2)c1` was run?
A: 15.5 µM

Q: How did the Activity [7] turn out when `O=C(O)c1cc(-c2ccc(O)cc2)nc2ccccc12` was run?
A: 66.6%

Q: With `O=C(O)c1cc(-c2cccc(O)c2)nc2ccccc12` as the compound, how does the Activity [7] read?
A: 72.9%
